Assay results from patent US20020137736A1, “Novel compounds” (priority 1999, published 2002).

melting point: 138 to 140 °C
SMILES: CC(C)Oc1ccc(NC(=N)c2cccs2)cc1CN1CCCC1 [Example 21, N-[4-Isopropoxy-3-(1-pyrrolidinylmethyl)phenyl]-2-thiophenecarboximidamide]
